This note sets out measurements from patent publication US6492434B1, “Methods for inhibiting skin ulceration by use of cyanoacrylate adhesives” (Flowers PArk Ltd., priority 1995, dated 2002).

For this data set, the system named is decubitus ulcers. The experiment in a line: Evaluation of n-butyl cyanoacrylate adhesive on inhibition of decubitus ulcers in 17 adult nursing home patients. It is filed as in vivo, human. The procedure:
An evaluation of the effect of n-butyl cyanoacrylate adhesive on the inhibition of decubitus ulcers in 17 adult patients located in nine different nursing homes was conducted. In this example, 17 patients were selected based on a history of recurring decubitus ulcer formation or, based on medical evaluation, were deemed to be at high risk of developing decubitus ulcers. A prophylactic treatment regimen was then employed on these patients which regimen consisted of using conventional pressure ulcer preventative practices primarily involving periodic rotation of the patient as well as application of an n-butyl cyanoacrylate adhesive composition onto the intact skin areas which appeared likely to develop pressure ulcers by virtue of irritation and reddening of the skin or unbroken blister formation which is classified as a stage I decubitus ulcer or by application of the n-butyl cyanoacrylate composition onto intact skin adjacent to type II decubitus ulcers. Application of n-butyl cyanoacrylate consisted of application of about 1-5 drops of the n-butyl cyanoacrylate composition onto the surface skin area prone to ulceration wherein each drop corresponds to about 0.03 ml of cyanoacrylate.
The specific amount of n-butyl cyanoacrylate adhesive and point of application of the adhesive for each patient are set forth in the following Table I:
After application, the cyanoacrylate adhesive was allowed to form a polymeric film and, on average, reapplication of the adhesive was conducted every 24 hours until the evaluation was completed.

Regarding `C=C(C#N)C(=O)OCCCC` [n-butyl cyanoacrylate adhesive, n-butyl-2-cyanoacrylate], the “expansion of stage II decubitus ulcer to adjacent skin areas” value (all patients treated in skin areas adjacent to stage II decubitus ulcer, plus conventional preventative practices) was “minimal expansion of the ulcer”. Further, for the setting “all patients with redness/irritation or blistering (stage I) of intact skin, plus conventional pressure ulcer preventative practices”, the “progression to stage II decubitus ulcer formation (broken skin)” value is “did not progress to stage II decubitus ulcer formation”. Also, the RESULT result by setting is: (patient 1, heel, redness 3 cm, 2 drops, reapplied about every 24 h, plus conventional preventative practices) “NO BREAKDOWN OF SKIN ON HEEL”; (patient 2, heel, redness 3 cm, 2 drops, reapplied about every 24 h, plus conventional practices) “LESS PERSPIRATION AND NO IRRITATION”; (patient 3, heels (2), blister (Stage I) 3-4 cm, 2 drops, reapplied about every 24 h, plus conventional practices) “NO BREAKDOWN OF BLISTER TO STAGE II”; (patient 4, heels (2) and elbows (2), redness 3-5 cm, 2 drops, reapplied about every 24 h, plus conventional practices) “NO SKIN BREAKDOWN ON HEELS OR ELBOWS”; (patient 5, cheek, redness ½-3 in, 2 drops, reapplied about every 24 h, plus conventional practices) “NO IRRITATION DEVELOPED”; (patient 6, lower leg, bruise 2-3 in, 4-5 drops, reapplied about every 24 h, plus conventional practices, listed as N-BUTYL CYANOACRYLATE ADHESIVES) “NO SKIN BREAKDOWN”. Moreover, the RESULT result is given as “SKIN DID NOT BREAKDOWN” (patient 7, shoulder, bony prominence 3-4 cm, 3-4 drops, reapplied about every 24 h, plus conventional practices, listed as N-BUTYL CYANOACRYLATE ADHESIVES); “NO SKIN BREAKDOWN” (patient 8, hip, bony prominence 3-4 cm, 3-4 drops, reapplied about every 24 h, plus conventional practices); “NO IRRITATION/REDDENING LEFT” (patient 9, heels (2), redness 5 cm, 1 drop, reapplied about every 24 h, plus conventional practices); “WARMING SENSATION UPON APPLICATION -” (patient 10, hip, blister (Stage I) 3-4 cm, 2 drops, treatment stopped); “NO IRRITATION/REDDENlNG LEFT” (patient 11, top of foot, redness 2-5 cm, 1 drop, reapplied about every 24 h, plus conventional practices); “REDNESS HEALED UP” (patient 12, heel, redness (scabbed over - healed stage II) 6-8 cm, 3 drops, reapplied about every 24 h, plus conventional practices). Also, the RESULT entry is given as “IRRITATION IMPROVED BUT PATIENT” (patient 13, knees & heels, redness 2.5 cm, 3 drops, patient passed away due to other conditions); “NO IRRITATION EVIDENT - HEELS ALMOST HEALED” (patient 14, heel, skin redness around Stage II ulcer 2.5 cm, 3 drops, reapplied about every 24 h, plus conventional practices); “PATIENT'S HEELS LOOK BETTER,” (patient 15, heels (2), redness 2.5 cm, 3 drops, reapplied about every 24 h, plus conventional practices); “NO FURTHER BREAKDOWN, REDDENING STILL” (patient 16, hip, redness (healed Stage II ulcer) 2 cm, 2-3 drops, reapplied about every 24 h, plus conventional practices).
